What was measured:
Spanishneedles = assay: Test D Spanishneedles; type: in vivo, Bidens bipinnata
dallisgrass = assay: Test D dallisgrass; type: in vivo, Paspalum dilatatum; details: Postemergence, 0 to 100 scale
Green foxtail [1] = assay: Test D green foxtail; type: in vivo; details: Rate 250 g/ha; Postemergence; 0 to 100 scale
purple nutsedge = assay: Test D purple nutsedge; type: in vivo, Cyperus rotundus; details: Postemergence, 0 to 100 scale
Green foxtail [2] = assay: Test D green foxtail; type: in vivo; details: Postemergence, 0 to 100 scale, 0 no injury, 100 complete control
Johnson grass = assay: Test D Johnson grass; type: in vivo, Sorghum halepense; details: Postemergence, 0 to 100 scale
Green foxtail [3] = assay: Test D green foxtail; type: in vivo; details: Postemergence, 0 to 100 scale, 0 no injury, 100 complete control; remark: listed apart in the source
Green foxtail [4] = assay: Test D green foxtail; type: in vivo; details: Postemergence, 0 to 100 scale, 0 no injury, 100 complete control; remark: listed apart in the source
sandbur = assay: Test D sandbur; type: in vivo, Cenchrus echinatus; details: Postemergence, 0 to 100 scale
Green foxtail [5] = assay: Test D green foxtail; type: in vivo; details: Postemergence, 0 to 100 scale, 0 no injury, 100 complete control; remark: listed apart in the source
common ragweed = assay: Test D common ragweed; type: in vivo, Ambrosia elatior
Alexandergrass = assay: Test D Alexandergrass; type: in vivo, Brachiaria plantaginea; details: Postemergence, 0 to 100 scale
tall mallow = assay: Test D tall mallow; type: in vivo, Malva sylvestris; details: Postemergence, 0 to 100 scale
[6] = Rate 16 g/ha; Postemergence; 0 to 100 scale, 0 no injury, 100 complete control
[7] = Rate 64 g/ha, Postemergence; 0 to 100 scale, 0 no injury, 100 complete control
[8] = Rate 125 g/ha, Postemergence; 0 to 100 scale, 0 no injury, 100 complete control
[9] = Rate 250 g/ha; Postemergence; 0 to 100 scale
[10] = Rate 16 g/ha, 0 no injury, 100 complete control
[11] = Rate 32 g/ha, 0 no injury, 100 complete control
[12] = Rate 64 g/ha, 0 no injury, 100 complete control
[13] = Rate 125 g/ha, 0 no injury, 100 complete control
[14] = Rate 32 g/ha; Postemergence; 0 to 100 scale, 0 no injury, 100 complete control

For CC(C)N(C(=O)n1oc(=O)n(C2(C)CC2)c1=O)c1ccccc1 [Compound 360], the “Plant response rating, Spanishneedles” value (Spanishneedles; [6]) was 0, the “Spanishneedles plant response rating” value (Spanishneedles; [7]) was 0 and the “Spanishneedles plant response rating” value (Spanishneedles; [8]) was 0. The “Plant response rating, Spanishneedles” value (Spanishneedles; [9]) was 20, the “Plant response rating, Dallisgrass” value (dallisgrass; [10]) was 0 and the “Plant response rating, Dallisgrass” value (dallisgrass; [11]) was 40. The “Plant response rating, Dallisgrass” value (dallisgrass; [12]) was 100, the “Plant response rating, Dallisgrass” value (dallisgrass; [13]) was 100 and the “Plant response rating, Dallisgrass” value (dallisgrass; Rate 250 g/ha) was 100. For the same compound, the “Plant response rating, Green foxtail” value (Green foxtail [1]) was 100, the “Plant response rating, Purple nutsedge” value (purple nutsedge; [10]) was 0 and the “Plant response rating, Purple nutsedge” value (purple nutsedge; [11]) was 0. The “Purple nutsedge plant response rating” value (purple nutsedge; [12]) was 0, the “Purple nutsedge plant response rating” value (purple nutsedge; [13]) was 10 and the “Plant response rating, Purple nutsedge” value (purple nutsedge; Rate 250 g/ha) was 20. The “Green foxtail plant response rating” value (Green foxtail [2]; Rate 64 g/ha) was 100, the “Green foxtail plant response rating” value (Green foxtail [2]; Rate 125 g/ha) was 100 and the “Plant response rating Johnsongrass” value (Johnson grass; [10]) was 0. For the same compound, the “Plant response rating Johnsongrass” value (Johnson grass; [11]) was 0, the “Plant response rating Johnsongrass” value (Johnson grass; [12]) was 0 and the “Plant response rating Johnsongrass” value (Johnson grass; [13]) was 50. The “Plant response rating Johnsongrass” value (Johnson grass; Rate 250 g/ha) was 70, the “Plant response rating, Green foxtail” value (Green foxtail [3]; Rate 64 g/ha) was 100 and the “Plant response rating, Green foxtail” value (Green foxtail [3]; Rate 125 g/ha) was 100. For the same compound, the “Plant response rating, Green foxtail” value (Green foxtail [4]; Rate 16 g/ha) was 0, the “Plant response rating, Green foxtail” value (Green foxtail [4]; Rate 32 g/ha) was 70 and the “Plant response rating, Sandbur” value (sandbur; [10]) was 0. The “Plant response rating, Sandbur” value (sandbur; [11]) was 90, the “Sandbur plant response rating” value (sandbur; [12]) was 50 and the “Sandbur plant response rating” value (sandbur; [13]) was 100. For the same compound, the “Plant response rating, Sandbur” value (sandbur; Rate 250 g/ha) was 100, the “Plant response rating, Green foxtail” value (Green foxtail [5]; Rate 16 g/ha) was 0 and the “Plant response rating, Green foxtail” value (Green foxtail [5]; Rate 32 g/ha) was 70. The “Plant response rating, C. ragweed” value (common ragweed; [6]) was 0, the “Plant response rating, C. ragweed” value (common ragweed; [14]) was 0 and the “C. ragweed plant response rating” value (common ragweed; [7]) was 30. The “Plant response rating, C. ragweed” value (common ragweed; [8]) was 30, the “Plant response rating, C. ragweed” value (common ragweed; [9]) was 30 and the “Plant response rating, Alexandergrass” value (Alexandergrass; [10]) was 20. For the same compound, the “Plant response rating, Alexandergrass” value (Alexandergrass; [11]) was 60, the “Plant response rating, Alexandergrass” value (Alexandergrass; [12]) was 50 and the “Plant response rating, Alexandergrass” value (Alexandergrass; [13]) was 100. The “Plant response rating, Alexandergrass” value (Alexandergrass; Rate 250 g/ha) was 100, the “Plant response rating, Tall Mallow” value (tall mallow; [10]) was 0 and the “Plant response rating, Tall Mallow” value (tall mallow; [11]) was 0. The “Tall Mallow plant response rating” value (tall mallow; [12]) was 40, the “Tall Mallow plant response rating” value (tall mallow; [13]) was 60 and the “Plant response rating, Tall Mallow” value (tall mallow; Rate 250 g/ha) was 90.
With CC(C)N(C(=O)n1oc(=O)n(C2CC2)c1=O)c1ccccc1 [Compound 243] the “Plant response rating, Spanishneedles” value (Spanishneedles; Postemergence; Rate 32 g/ha; 0 to 100 scale, 0 no injury, 100 complete control) was 50, the “Plant response rating, Spanishneedles” value (Spanishneedles; [6]) was 0 and the “Plant response rating, Spanishneedles” value (Spanishneedles; [14]) was 0. For the same compound, the “Spanishneedles plant response rating” value (Spanishneedles; [7]) was 50, the “Spanishneedles plant response rating” value (Spanishneedles; [8]) was 20 and the “Plant response rating, Spanishneedles” value (Spanishneedles; [9]) was 100. The “Plant response rating, Dallisgrass” value (dallisgrass; [10]) was 0, the “Plant response rating, Dallisgrass” value (dallisgrass; [11]) was 50 and the “Plant response rating, Dallisgrass” value (dallisgrass; [12]) was 70. For the same compound, the “Plant response rating, Dallisgrass” value (dallisgrass; [13]) was 100, the “Plant response rating, Dallisgrass” value (dallisgrass; Rate 250 g/ha) was 100 and the “Plant response rating, Green foxtail” value (Green foxtail [1]) was 100. The “Plant response rating, Purple nutsedge” value (purple nutsedge; [10]) was 0, the “Plant response rating, Purple nutsedge” value (purple nutsedge; [11]) was 0 and the “Purple nutsedge plant response rating” value (purple nutsedge; [12]) was 0. For the same compound, the “Purple nutsedge plant response rating” value (purple nutsedge; [13]) was 10, the “Plant response rating, Purple nutsedge” value (purple nutsedge; Rate 250 g/ha) was 100 and the “Green foxtail plant response rating” value (Green foxtail [2]; Rate 64 g/ha) was 100. The “Green foxtail plant response rating” value (Green foxtail [2]; Rate 125 g/ha) was 100, the “Plant response rating Johnsongrass” value (Johnson grass; [10]) was 0 and the “Plant response rating Johnsongrass” value (Johnson grass; [11]) was 0. For the same compound, the “Plant response rating Johnsongrass” value (Johnson grass; [12]) was 0, the “Plant response rating Johnsongrass” value (Johnson grass; [13]) was 30 and the “Plant response rating Johnsongrass” value (Johnson grass; Rate 250 g/ha) was 100. For the same compound, the “Plant response rating, Green foxtail” value (Green foxtail [3]; Rate 64 g/ha) was 100, the “Plant response rating, Green foxtail” value (Green foxtail [3]; Rate 125 g/ha) was 100 and the “Plant response rating, Green foxtail” value (Green foxtail [4]; Rate 16 g/ha) was 10. The “Plant response rating, Green foxtail” value (Green foxtail [4]; Rate 32 g/ha) was 100, the “Plant response rating, Sandbur” value (sandbur; [10]) was 10 and the “Plant response rating, Sandbur” value (sandbur; [11]) was 20. The “Sandbur plant response rating” value (sandbur; [12]) was 30, the “Sandbur plant response rating” value (sandbur; [13]) was 30 and the “Plant response rating, Sandbur” value (sandbur; Rate 250 g/ha) was 100. For the same compound, the “Plant response rating, Green foxtail” value (Green foxtail [5]; Rate 16 g/ha) was 10, the “Plant response rating, Green foxtail” value (Green foxtail [5]; Rate 32 g/ha) was 100 and the “Plant response rating, C. ragweed” value (common ragweed; [6]) was 0. The “Plant response rating, C. ragweed” value (common ragweed; [14]) was 0, the “Plant response rating, C. ragweed” value (common ragweed; [7]) was 10 and the “Plant response rating, C. ragweed” value (common ragweed; [8]) was 10. The “Plant response rating, C. ragweed” value (common ragweed; [9]) was 60, the “Plant response rating, Alexandergrass” value (Alexandergrass; [10]) was 0 and the “Plant response rating, Alexandergrass” value (Alexandergrass; [11]) was 0. The “Plant response rating, Alexandergrass” value (Alexandergrass; [12]) was 20, the “Plant response rating, Alexandergrass” value (Alexandergrass; [13]) was 100 and the “Plant response rating, Alexandergrass” value (Alexandergrass; Rate 250 g/ha) was 100. For the same compound, the “Plant response rating, Tall Mallow” value (tall mallow; [10]) was 50, the “Plant response rating, Tall Mallow” value (tall mallow; [11]) was 20 and the “Tall Mallow plant response rating” value (tall mallow; [12]) was 30. The “Tall Mallow plant response rating” value (tall mallow; [13]) was 40 and the “Plant response rating, Tall Mallow” value (tall mallow; Rate 250 g/ha) was 60.
In the case of COCC(C)n1c(=O)on(C(=O)N(c2ccc(F)cc2F)C(C)C)c1=O (stereo not drawn) [Compound 352], the “Plant response rating, Spanishneedles” value (Spanishneedles; [6]) is reported as 0, the “Plant response rating, Spanishneedles” value (Spanishneedles; [14]) is reported as 0 and the “Spanishneedles plant response rating” value (Spanishneedles; [7]) is reported as 0. For the same compound, the “Spanishneedles plant response rating” value (Spanishneedles; [8]) was 40, the “Plant response rating, Spanishneedles” value (Spanishneedles; [9]) was 30 and the “Plant response rating, Dallisgrass” value (dallisgrass; [10]) was 0. For the same compound, the “Plant response rating, Dallisgrass” value (dallisgrass; [11]) was 70, the “Plant response rating, Dallisgrass” value (dallisgrass; [12]) was 80 and the “Plant response rating, Dallisgrass” value (dallisgrass; [13]) was 100. The “Plant response rating, Dallisgrass” value (dallisgrass; Rate 250 g/ha) was 100, the “Plant response rating, Green foxtail” value (Green foxtail [1]) was 100 and the “Plant response rating, Purple nutsedge” value (purple nutsedge; [10]) was 0. For the same compound, the “Plant response rating, Purple nutsedge” value (purple nutsedge; [11]) was 0, the “Purple nutsedge plant response rating” value (purple nutsedge; [12]) was 0 and the “Purple nutsedge plant response rating” value (purple nutsedge; [13]) was 0. For the same compound, the “Plant response rating, Purple nutsedge” value (purple nutsedge; Rate 250 g/ha) was 0, the “Green foxtail plant response rating” value (Green foxtail [2]; Rate 64 g/ha) was 100 and the “Green foxtail plant response rating” value (Green foxtail [2]; Rate 125 g/ha) was 100. For the same compound, the “Plant response rating Johnsongrass” value (Johnson grass; [10]) was 0, the “Plant response rating Johnsongrass” value (Johnson grass; [11]) was 0 and the “Plant response rating Johnsongrass” value (Johnson grass; [12]) was 0. The “Plant response rating Johnsongrass” value (Johnson grass; [13]) was 40, the “Plant response rating Johnsongrass” value (Johnson grass; Rate 250 g/ha) was 80 and the “Plant response rating, Green foxtail” value (Green foxtail [3]; Rate 64 g/ha) was 100. For the same compound, the “Plant response rating, Green foxtail” value (Green foxtail [3]; Rate 125 g/ha) was 100, the “Plant response rating, Green foxtail” value (Green foxtail [4]; Rate 16 g/ha) was 0 and the “Plant response rating, Green foxtail” value (Green foxtail [4]; Rate 32 g/ha) was 100. For the same compound, the “Plant response rating, Sandbur” value (sandbur; [10]) was 0, the “Plant response rating, Sandbur” value (sandbur; [11]) was 90 and the “Sandbur plant response rating” value (sandbur; [12]) was 70. The “Sandbur plant response rating” value (sandbur; [13]) was 100, the “Plant response rating, Sandbur” value (sandbur; Rate 250 g/ha) was 100 and the “Plant response rating, Green foxtail” value (Green foxtail [5]; Rate 16 g/ha) was 0. For the same compound, the “Plant response rating, Green foxtail” value (Green foxtail [5]; Rate 32 g/ha) was 100, the “Plant response rating, C. ragweed” value (common ragweed; Postemergence; Rate 16 g/ha; 0 to 100 scale, 0 no injury, 100 complete control) was 0 and the “Plant response rating, C. ragweed” value (common ragweed; [14]) was 0. For the same compound, the “Plant response rating, C. ragweed” value (common ragweed; [7]) was 20, the “Plant response rating, C. ragweed” value (common ragweed; [8]) was 20 and the “Plant response rating, C. ragweed” value (common ragweed; [9]) was 100. For the same compound, the “Plant response rating, Alexandergrass” value (Alexandergrass; [10]) was 0, the “Plant response rating, Alexandergrass” value (Alexandergrass; [11]) was 60 and the “Plant response rating, Alexandergrass” value (Alexandergrass; [12]) was 80. For the same compound, the “Plant response rating, Alexandergrass” value (Alexandergrass; [13]) was 100, the “Plant response rating, Alexandergrass” value (Alexandergrass; Rate 250 g/ha) was 100 and the “Plant response rating, Tall Mallow” value (tall mallow; [10]) was 0. The “Plant response rating, Tall Mallow” value (tall mallow; [11]) was 0, the “Tall Mallow plant response rating” value (tall mallow; [12]) was 30 and the “Tall Mallow plant response rating” value (tall mallow; [13]) was 30. The “Plant response rating, Tall Mallow” value (tall mallow; Rate 250 g/ha) was 20.

From patent publication US6737383B1, “Herbicidal oxadiazolidines” (priority 1999, dated 2004)
